Test results as given in patent publication US20220125051A1, “PRE-HARVEST DESICCATION METHOD” (SYNGENTA CROP PROTECTION AG, priority 2019, published 2022).
Read-outs that look alike come from different tables or passages of the source.

Tests used:
Experiment in all cases: Post-emergence efficacy, Method A
Assay type in all cases: in vivo
[1] = system: Eleusine indica (ELEIN); details: Eleusine indica, post-emergence, 312 h, evaluated after 13 days
Summary of the method: (§1)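 Plants raised 14 days from seed in standard soil in a glasshouse (24/16 °C day/night, 14 h light, 65% humidity) were sprayed with compound dissolved in acetone plus IF50 solvent/emulsifier (50 g/l solution), diluted with 0.25% or 1% Empicol ESC70 + 1% ammonium sulphate. Damage was scored visually after 13 days (0 = none, 100 = total).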

[2] = system: Digitaria sanguinalis (DIGSA); details: Digitaria sanguinalis, post-emergence, 312 h, evaluated after 13 days
Summary of the method: as §1

[3] = system: Amaranthus palmeri (AMAPA); details: Amaranthus palmeri, post-emergence, 312 h, evaluated after 13 days
Summary of the method: as §1

[4] = system: Chenopodium album (CHEAL); details: Chenopodium album, post-emergence, 312 h, evaluated after 13 days
Summary of the method: as §1

[5] = system: Setaria faberi (SETFA); details: Setaria faberi, post-emergence, 312 h, evaluated after 13 days
Summary of the method: as §1

[6] = system: Euphorbia heterophylla (EPHHL); details: Euphorbia heterophylla, post-emergence, 312 h, evaluated after 13 days
Summary of the method: as §1

[7] = system: Ipomoea hederacea (IPOHE); details: Ipomoea hederacea, post-emergence, 312 h, evaluated after 13 days
Summary of the method: as §1

[8] = system: Lolium perenne (LOLPE); details: Lolium perenne, post-emergence, 312 h, evaluated after 13 days
Summary of the method: as §1

[9] = system: Echinochloa crus-galli (ECHCG); details: Echinochloa crus-galli, post-emergence, 312 h, evaluated after 13 days
Summary of the method: as §1

[10] = Application Rate 500 g/Ha, Method A, read-out: Control of weed species after post-emergence application, ELEIN (100=total damage to plant; 0=no damage to plant)
[11] = Application Rate 500 g/Ha, Method A, read-out: Control of weed species after post-emergence application, DIGSA (100=total damage to plant; 0=no damage to plant)
[12] = Application Rate 500 g/Ha, Method A, read-out: Control of weed species after post-emergence application, AMAPA (100=total damage to plant; 0=no damage to plant)
[13] = Application Rate 500 g/Ha, Method A, read-out: Control of weed species after post-emergence application, CHEAL (100=total damage to plant; 0=no damage to plant)
[14] = Application Rate 500 g/Ha, Method A, read-out: Control of weed species after post-emergence application, SETFA (100=total damage to plant; 0=no damage to plant)
[15] = Application Rate 500 g/Ha, Method A, read-out: Control of weed species after post-emergence application, EPHHL (100=total damage to plant; 0=no damage to plant)
[16] = Application Rate 500 g/Ha, Method A, read-out: Control of weed species after post-emergence application, IPOHE (100=total damage to plant; 0=no damage to plant)
[17] = Application Rate 500 g/Ha, Method A, read-out: Control of weed species after post-emergence application, LOLPE (100=total damage to plant; 0=no damage to plant)
[18] = Application Rate 500 g/Ha, Method A, read-out: Control of weed species after post-emergence application, ECHCG (100=total damage to plant; 0=no damage to plant)
[19] = Application rate 500 g/Ha, 100=total damage to plant, 0=no damage to plant, read-out: Control of weed species after post-emergence application, ELEIN
[20] = Application rate 500 g/Ha, 100=total damage to plant, 0=no damage to plant, read-out: Control of weed species after post-emergence application, DIGSA
[21] = Application rate 500 g/Ha, 100=total damage to plant, 0=no damage to plant, read-out: Control of weed species after post-emergence application, AMAPA
[22] = Application rate 500 g/Ha, 100=total damage to plant, 0=no damage to plant, read-out: Control of weed species after post-emergence application, CHEAL
[23] = Application rate 500 g/Ha, 100=total damage to plant, 0=no damage to plant, read-out: Control of weed species after post-emergence application, SETFA
[24] = Application rate 500 g/Ha, 100=total damage to plant, 0=no damage to plant, read-out: Control of weed species after post-emergence application, EPHHL
[25] = Application rate 500 g/Ha, 100=total damage to plant, 0=no damage to plant, read-out: Control of weed species after post-emergence application, IPOHE
[26] = Application rate 500 g/Ha, 100=total damage to plant, 0=no damage to plant, read-out: Control of weed species after post-emergence application, LOLPE
[27] = Application rate 500 g/Ha, 100=total damage to plant, 0=no damage to plant, read-out: Control of weed species after post-emergence application, ECHCG

Row | SMILES | pest or weed control at 500 g/ha [1, 19] [%] | pest or weed control at 500 g/ha [2, 20] [%] | pest or weed control at 500 g/ha [3, 21] [%] | pest or weed control at 500 g/ha [4, 22] [%] | pest or weed control at 500 g/ha [5, 23] [%] | pest or weed control at 500 g/ha [6, 24] [%] | pest or weed control at 500 g/ha [7, 25] [%] | pest or weed control at 500 g/ha [8, 26] [%] | pest or weed control at 500 g/ha [9, 27] [%] | further results
1 | CN(C)S(=O)(=O)[N-]C(=O)C[n+]1ccc(-c2ncccn2)cn1 [Compound A214, dimethylsulfamoyl-[2-(4-pyrimidin-2-ylpyridazin-1-ium-1-yl)acetyl]azanide] | – | – | – | – | – | – | – | – | – | pest or weed control at 500 g/ha [1, 10]: 100%; pest or weed control at 500 g/ha [2, 11]: 100%; pest or weed control at 500 g/ha [3, 12]: 100%; pest or weed control at 500 g/ha [4, 13]: 100%; pest or weed control at 500 g/ha [5, 14]: 90%; pest or weed control at 500 g/ha [6, 15]: 100%; pest or weed control at 500 g/ha [7, 16]: 40%; pest or weed control at 500 g/ha [8, 17]: 80%; pest or weed control at 500 g/ha [9, 18]: 100%
2 | O=S(=O)([O-])CC[n+]1ccc(-c2cc(C(F)(F)F)ncn2)cn1 [Compound A109] | 50 | 50 | 60 | 60 | 30 | 60 | 50 | 30 | 40 | –
3 | O=S(=O)([O-])CC[n+]1ccc(-c2ncc(Cl)cc2Cl)cn1 [Compound A142] | 60 | 40 | 10 | 20 | 30 | 60 | 20 | 10 | 40 | –
4 | CNS(=O)(=O)c1cnc(-c2cc[n+](CCC(=O)O)nc2)nc1 [Compound A209] | – | – | – | – | – | – | – | – | – | pest or weed control at 125 g/ha ([1]; Application Rate 125 g/Ha, Method A, read-out: Control of weed species after post-emergence application, ELEIN (100=total damage to plant; 0=no damage to plant)): 0%; pest or weed control at 125 g/ha ([2]; Application Rate 125 g/Ha, Method A, read-out: Control of weed species after post-emergence application, DIGSA (100=total damage to plant; 0=no damage to plant)): 30%; pest or weed control at 125 g/ha ([3]; Application Rate 125 g/Ha, Method A, read-out: Control of weed species after post-emergence application, AMAPA (100=total damage to plant; 0=no damage to plant)): 30%; pest or weed control at 125 g/ha ([4]; Application Rate 125 g/Ha, Method A, read-out: Control of weed species after post-emergence application, CHEAL (100=total damage to plant; 0=no damage to plant)): 10%; pest or weed control at 125 g/ha ([5]; Application Rate 125 g/Ha, Method A, read-out: Control of weed species after post-emergence application, SETFA (100=total damage to plant; 0=no damage to plant)): 20%; pest or weed control at 125 g/ha ([6]; Application Rate 125 g/Ha, Method A, read-out: Control of weed species after post-emergence application, EPHHL (100=total damage to plant; 0=no damage to plant)): 0%; pest or weed control at 125 g/ha ([7]; Application Rate 125 g/Ha, Method A, read-out: Control of weed species after post-emergence application, IPOHE (100=total damage to plant; 0=no damage to plant)): 0%; pest or weed control at 125 g/ha ([8]; Application Rate 125 g/Ha, Method A, read-out: Control of weed species after post-emergence application, LOLPE (100=total damage to plant; 0=no damage to plant)): 10%; pest or weed control at 125 g/ha ([9]; Application Rate 125 g/Ha, Method A, read-out: Control of weed species after post-emergence application, ECHCG (100=total damage to plant; 0=no damage to plant)): 10%
5 | CNC(=O)c1ccnc(-c2cc[n+](CCC(=O)[O-])nc2)n1 [Compound A59] | 90 | 100 | 90 | 90 | 100 | 100 | 80 | 70 | 80 | –
6 | Cc1cc(F)cnc1-c1cc[n+](CCC(=O)O)nc1 [Compound A151] | 20 | 20 | 20 | 20 | 20 | 40 | 10 | 10 | 20 | –
7 | O=S(=O)([O-])CC[n+]1ccc(-c2ncc(Cl)cn2)cn1 [Compound A17] | 60 | 60 | 100 | 30 | 40 | 30 | 30 | 10 | 40 | –
8 | Cc1cccnc1-c1cc[n+](CCS(=O)(=O)[O-])nc1 [Compound A66] | 40 | 30 | 40 | 20 | 60 | 50 | 40 | 50 | 50 | –
9 | CN(C)c1ccnc(-c2cc[n+](CCS(=O)(=O)[O-])nc2)n1 [Compound A16] | 70 | 50 | 60 | 30 | 50 | 50 | 40 | 10 | 60 | –
10 | Cc1cnc(-c2cc[n+](CCC(=O)[O-])nc2)nc1C [Compound A96] | 40 | 40 | 70 | 20 | 70 | 90 | 40 | 60 | 70 | –
11 | O=C(O)CC[n+]1ccc(-c2cncc(C(F)(F)F)n2)cn1 [Compound A120] | 30 | 40 | 90 | 70 | 40 | 50 | 10 | 20 | 40 | –
12 | Cc1cnc(-c2cc[n+](CCC(=O)O)nc2)c(C)c1 [Compound A177] | – | – | – | – | – | – | – | – | – | pest or weed control at 500 g/ha [1, 10]: 10%; pest or weed control at 500 g/ha [2, 11]: 10%; pest or weed control at 500 g/ha [3, 12]: 60%; pest or weed control at 500 g/ha [4, 13]: 50%; pest or weed control at 500 g/ha [5, 14]: 0%; pest or weed control at 500 g/ha [6, 15]: 30%; pest or weed control at 500 g/ha [7, 16]: 20%; pest or weed control at 500 g/ha [8, 17]: 0%; pest or weed control at 500 g/ha [9, 18]: 0%
